The text below walks through data of patent US20060046968A1, “Prodrug substituted benzoxazoles as estrogenic agents” (priority 2004, published 2006).

Data set [1] has as its system Progesterone receptor mRNA. Kind of data set: Progesterone receptor mRNA regulation in the preoptic area of the rat brain. Type of data set: in vivo. The conditions noted are these: 10 mg/kg.
Data set [2] in a line: Cytosolic incubation in the presence of PAPS (sulfation), human. Type of data set: in vitro ADME. The conditions noted are these: 100 μM, 37° C., 60 mins, with PAPS; human liver cytosol. The protocol: These pilot incubations (1.0 mL incubation volume) were conducted using a substrate concentration of 100 μM ERB-041 at 37° C. for 60 mins. Incubations were terminated by the addition of an equal volume of chilled acetonitrile. Reserved phase-HPLC was utilized for all metabolite analysis. To confirm the formation of glucuronide and sulfate conjugates of ERB-041 in pilot scale incubations, HPLC analysis was performed using an Agilent 1100 LC system equipped with a diode array detector (Agilent Technologies, Wilmington, Del.). […] Rat liver and human liver cytosol incubations produced similar profiles. […] Further confirmation of the identity of the isolated metabolites […] and M9 from the large-scale incubations was obtained using LC-MS analysis (ESI, negative ionization). In the large-scale incubation, approximately 23% of ERB-041 was converted to the two sulfate conjugates. Separation of the two sulfate metabolites was achieved using gradient solvent system C described supra.

Data set [3] relates to ovulation (number of oocytes ovulated). Kind of data set: Ovulation inhibition test procedure. Type of data set: in vivo. Conditions: 50 mg/kg. The text has this:
The test procedure is used to determine whether test compounds can inhibit or change the timing of ovulation. It can also be used to determine the number of oocytes ovulated [Lundeen, et al., J Steroid Biochem Mol Biol 78: 137-143 (2001)]. The following data were obtained from representative metabolites of compounds from the invention (Table 22).

The subject of data set [4] is Lewis rats. Kind of data set: Lewis rat adjuvant-induced arthritis, treatment protocol: joint score (maximal score per day 12). The data set is classed as in vivo. Conditions: s.c. daily, begun Day 8 after adjuvant.
Data set [5] in a line: Microsomal incubation in the presence of UDPGA (glucuronidation). The data set is classed as in vitro ADME, rat. The conditions noted are these: 100 μM, 37° C., 60 mins, with UDPGA. The protocol: An analytical scale incubation of ERB-041 with male SD rat liver microsomes in the presence of UDPGA was conducted in phosphate buffer (0.1 M, pH 7.4) containing 1 mg/mL rat liver microsomal protein with final concentrations of 5 mM magnesium chloride and 4 mM UDPGA. This pilot incubation (1.0 mL incubation volume) was conducted using a substrate concentration of 100 μM at 37° C. for 60 mins. Incubations were terminated by the addition of an equal volume of chilled acetonitrile. Large-scale incubations (a total of 37 incubations @ 5.0 mL incubation volume) to generate sufficient quantities of the glucuronide metabolites for structure elucidation were subsequently conducted as described above at 37° C. for 60 mins. Appropriate substrate controls and incubations without addition of UDPGA were also carried out. Reserved phase-HPLC was utilized for all metabolite analysis. To confirm the formation of glucuronide and sulfate conjugates of ERB-041 in pilot scale incubations, HPLC analysis was performed using an Agilent 1100 LC system equipped with a diode array detector (Agilent Technologies, Wilmington, Del.). […] Separation of the two metabolites was achieved using gradient solvent system B as described supra.

The nature of data set [6]: Cytosolic incubation in the presence of PAPS (sulfation), rat. Type of data set: in vitro ADME. The method, then:
These pilot incubations (1.0 mL incubation volume) were conducted using a substrate concentration of 100 μM ERB-041 at 37° C. for 60 mins. Incubations were terminated by the addition of an equal volume of chilled acetonitrile. Large-scale incubations (a total of 60 incubations @ 1.0 mL incubation volume) to generate sufficient quantities of the sulfate metabolites for structure elucidation were subsequently conducted as described above at 37° C. for 60 mins. Appropriate substrate controls and incubations without addition of PAPS were conducted. Additional incubations (a total of 120 @ 2.0 mL incubation volume, 50 μM ERB-041) were also conducted in a similar manner to isolate sufficient amounts of ERB-041-sulfates to enable full structural identification. Reserved phase-HPLC was utilized for all metabolite analysis. To confirm the formation of glucuronide and sulfate conjugates of ERB-041 in pilot scale incubations, HPLC analysis was performed using an Agilent 1100 LC system equipped with a diode array detector (Agilent Technologies, Wilmington, Del.). […] Rat liver and human liver cytosol incubations produced similar profiles. […] Further confirmation of the identity of the isolated metabolites […] and M9 from the large-scale incubations was obtained using LC-MS analysis (ESI, negative ionization). […]

The test system of data set [7] is Lewis rats. Kind of data set: Lewis rat adjuvant-induced arthritis, inhibition protocol: joint score (maximal score per day 12). The data set is classed as in vivo.

With `Oc1cc(Br)c2oc(-c3ccc(O)c(F)c3)nc2c1` [Example 21, 7-BROMO-2-(3-FLUORO-4-HYDROXYPHENYL)-1,3-BENZOXAZOL-5-OL], the “Progesterone receptor mRNA (mean ± stdev)” value in data set [1] is 110.5 ± 19.3 arbitrary units.

With `C=Cc1cc(O)cc2nc(-c3ccc(O)c(F)c3)oc12` [Example 24, 2-(3-FLUORO-4-HYDROXYPH ENYL)-7-VI NYL-1,3-BENZOXAZOL-5-OL], the Metabolites detected entry in data set [2] was “two metabolites (M9A and M9) were detected”; in data set [5] it was “two major metabolites, M5 and M6, were detected”; in data set [6] (100 μM, 37° C., 60 mins, with PAPS, rat liver cytosol) it was “two metabolites (M9A and M9) were detected”. The “Number of oocytes (mean ± SEM)” value in data set [3] is given as 13.86 ± 0.77. Moreover, the Joint inflammation score in the data set on Lewis rats [4] (table Day 1) is reported as 11.33; in the data set on Lewis rats [4] (table Day 2), 11.15; in the data set on Lewis rats [4] (table Day 3), 11.33; in the data set with Lewis rats [4] (table Day 4), 9.50; in the data set with Lewis rats [4] (table Day 5), 8.00; in the data set on Lewis rats [4] (table Day 6) it was 7.00. The Joint inflammation score was 5.83 with Lewis rats [4] (table Day 7); 4.83 in the data set on Lewis rats [4] (table Day 8); 3.50 in the data set with Lewis rats [4] (table Day 9); 3.83 in the data set with Lewis rats [4] (table Day 10); 3.83 in the data set with Lewis rats [4] (table Day 11); 3.83 in the data set with Lewis rats [4] (table Day 12). For the same molecule, the Joint inflammation score in the data set with Lewis rats [4] (table Day 13) was determined as 3.16; in the data set with Lewis rats [4] (table Day 14), 3.16; in the data set with Lewis rats [4] (table Day 15) it was 2.83; in the data set on Lewis rats [4] (table Day 16), 2.83; in the data set with Lewis rats [4] (table Day 17), 2.00; with Lewis rats [7] (s.c. daily from Day 1, Day 1) it was 0.00. Moreover, the Joint inflammation score was determined as 1.00 with Lewis rats [7] (s.c. daily from Day 1, Day 2); 4.50 with Lewis rats [7] (s.c. daily from Day 1, Day 3); 4.83 in the data set on Lewis rats [7] (s.c. daily from Day 1, Day 4); 5.83 in the data set on Lewis rats [7] (s.c. daily from Day 1, Day 5); 6.16 in the data set on Lewis rats [7] (s.c. daily from Day 1, Day 6); 6.16 in the data set with Lewis rats [7] (s.c. daily from Day 1, Day 7). The Joint inflammation score in the data set with Lewis rats [7] (s.c. daily from Day 1, Day 8) was 5.33; with Lewis rats [7] (s.c. daily from Day 1, Day 9), 5.66; in the data set on Lewis rats [7] (s.c. daily from Day 1, Day 10), 4.33; in the data set on Lewis rats [7] (s.c. daily from Day 1, Day 11), 3.16; in the data set with Lewis rats [7] (s.c. daily from Day 1, Day 12) it was 3.16; in the data set on Lewis rats [7] (s.c. daily from Day 1, Day 13), 2.16. The Joint inflammation score with Lewis rats [7] (s.c. daily from Day 1, Day 14) is on record as 3.33; with Lewis rats [7] (s.c. daily from Day 1, Day 15) it was 3.00; with Lewis rats [7] (s.c. daily from Day 1, Day 16) it was 1.66; with Lewis rats [7] (s.c. daily from Day 1, Day 17), 1.50. Also, the “converted to the two sulfate conjugates” value in data set [6] (large-scale incubation with PAPS) is “approximately 23%”.
